According to US20060073541A1, “Lipophilic dyes and their application for detection of myelin” (priority 2004, published 2006):

Tests used:
myelin [1] = experiment: Myelin staining of mouse brain cryosections, label pattern comparison; settings: for labeling of myelin (selectivity): 1 μM or 500 nM in PBS; for myelin label pattern / non-specific background labeling / single axon labeling: 16 μm mouse brain cryosections, dyes 500 nM 20 minutes; for myelin label pattern: sagittal and cross sections, anti-MBP 5 μg/ml overnight; for emission wavelength (Em) / excitation wavelength (Ex): dye on labeled mouse brain cryosections
Method: In an exemplary embodiment, the present method stains and detects myelin in brain tissue sections that have been immobilized on a glass slide. In this instance a protocol for labeling brain cryosections comprises: • 1. Rehydrate and/or Permeabilize. Bring tissue sections on slides to room temperature, then rehydrate in either PBS (phosphate-buffered saline, 0.05M, pH 7.4) or PBT (PBS+0.2% Triton X-100) for at least 20 minutes. Permeabilization with Triton X-100 is not necessary for labeling using the present lipophilic dyes, but is likely necessary for any other counterstains or antibodies to be used. • 2. Prepare Label Solution. Prepare the labeling solution by diluting the stock solution 300-fold with PBS to make a final recommended concentration of 500 nM dye. • 3. Label Step. Flood the section with labeling solution and stain for 20 minutes at room temperature. • 4. Wash. When labeling is complete, remove solution, rinse in PBS, and wash 3×10 minutes with PBS. • 5. Counterstaining and Mounting. At this point tissues can be counterstained as necessary, or mounted with an aqueous antifade mounting medium such as ProLong or ProLong Gold reagent.
Use of this antibody allows for specific labeling with which to compare the present lipophilic dyes and chromogenic method label patterns. […] Tissue was sectioned on a cryostat and mounted on Plus slides and stored at −80° C. Upon use, tissue sections were brought to room temperature and rehydrated in PBT (0.5 M phosphate-buffered saline containing 0.2% Triton X-100 and 0.2% BSA) for 30 minutes. Sections were blocked for 1 hour in 5% normal goat serum/3% BSA/PBT, then labeled overnight at 4° using 5 μg/ml rat anti-MBP primary antibody from Chemicon (MAB386). After washing in PBT, tissues were washed in Image-iT FX signal enhancer (136933, Molecular Probes, Inc., Eugene, Oreg.) for 30 minutes, then washed again in PBT. Sections were incubated in Alexa Fluor 488 goat anti-rat secondary antibody (A11006, Molecular Probes, Inc.) for 2 hours, washed in PBT, and mounted in ProLong antifade solution (P7481, Molecular Probes, Inc.). Images were collected on a Nikon E800 epifluorescence upright microscope using a Princeton MicroMax cooled CCD digital camera, MetaMorph acquisition software, and Adobe Photoshop image analysis software (Ex 495/Em 519, FITC Filter Set).
Other than antibody labeling techniques, myelin labeling is traditionally performed using long and complicated chromogenic (non-fluorescent) dye protocols. One of the most common is the Loyez Technique. A more recent, and more specific method is Schmued's Gold Chloride Technique. These two methods were used for comparison to the present dyes. • I. Schmued's Gold Chloride Technique. Based on a method by Laurence C. Schmued [1990. A rapid, sensitive histochemical stain for myelin in frozen brain sections. J. Histochem Cytochem. 38(5): 717-720]. Tissues were rehydrated in PBT for 30 minutes, then labeled for 3.5 hours in 0.2% gold chloride in 0.02 M neutral phosphate buffer with 0.9% sodium chloride. After a water rinse, tissues were post-fixed for 5 minutes in 2.5% sodium thiosulfate, rinsed in running tap water for 30 minutes, and mounted in mowiol. Images were collected using transmitted light on the system outlined in part A of this example. Myelin was labeled a brown-red color. […] Loyez Technique. Adapted from H. C. Cook. 1974. […] London: Butterworths. pp. 161-162. Tissues were rehydrated and permeabilized 30 minutes in PBT, then treated with 4% iron alum overnight at room temperature. After a water wash, tissues were stained overnight in a 10% alcoholic haematoxylin solution with lithium carbonate at room temperature. After two 10-minute water washes, tissues were destained for approximately 20 seconds in 4% iron alum, and washed in water. After a final wash in borax-ferricyanide to colorize the myelin blue-black, tissues were washed in water and mounted in mowiol. Images were scanned as in section B. I. Of this example. […]

myelin [2] = experiment: Myelin staining in combination with NeuroTrace Nissl stains and DAPI on mouse brain cryosections; settings: 500 nM dye, NeuroTrace Nissl stain 1:300, DAPI
Method: (§1) A 16 μm mouse brain cryosection, cross section through diencephalon, was rehydrated for 20 minutes in PBT (0.5 M phosphate-buffered saline containing 0.2% Triton X-100 and 0.2% BSA). The three dyes were mixed into the final stain solution (in PBS), such that there was a concentration of 500 nM of Compound 1, 1:300 dilution of NeuroTrace Red Nissl Stain, and 0.1 μg/ml DAPI. Sections were labeled in this combination for 20 minutes, then washed well in PBT prior to mounting in Prolong antifade mounting medium (Molecular Probes, Inc.). Images were collected on a Nikon E800 epifluorescence upright microscope using a Princeton MicroMax cooled CCD digital camera, MetaMorph acquisition software, and Adobe Photoshop image analysis software.
as §1, with “(0.5M” for “(0.5 M”, “nM” for “nM of”, “2,” for “1,”
12 μm thick mouse brain cryosections, either cross-sectioned through the mesencephalon or sagittal sections, were rehydrated and permeabilized for 20 minutes in PBT (PBS with 0.2% Triton X-100 and 0.2% BSA) then labeled 30 minutes with 500 nM Compound 4 in PBS. Sections were washed 3×10 minutes with PBT then labeled 20 minutes with NeuroTrace Green Nissl Stain (diluted 1:300 from stock). Sections were washed 3×5 minutes in PBS, labeled 1.5 minutes with 0.2 μg/mL DAPI, washed 3×5 minutes in PBS again, and mounted in Prolong Gold antifade mounting medium. Samples were compared to sections labeled with Compound 1 and Compound 2 as controls. Images were collected on a Nikon E800 epifluorescence upright microscope using a Princeton MicroMax cooled CCD digital camera, MetaMorph acquisition software, and Adobe Photoshop image analysis software.

myelin [3] = experiment: Detection of myelin in combination with antibodies (anti-GFAP) and DAPI on mouse brain cryosection
Method: To test whether use of Compound 1 interrupts antibody binding, Compound 1 was used in conjunction with anti-GFAP on mouse brain sections. A 16 μm mouse brain cryosection, cross-section through the rostral mesencephalon, was rehydrated and permeabilized in PBT (0.05 M phosphate buffered saline with 0.2% Triton X-100 and 0.2% BSA) for 20 minutes, the washed for 30 minutes with Image-iT FX Signal Enhancer (Molecular Probes, Inc.) to block non-specific Alexa Fluor dye binding to myelin. After washing in PBT, the section was blocked for 1 hour in 5% normal goat serum/0.2% Triton X-100/3% BSA, then incubated overnight at 4° C. in 5 μg/ml mouse anti-GFAP (glial fibrillary acidic protein) from Molecular Probes (A21282) in blocking buffer. Sections were washed well in PBT, then incubated in Alexa Fluor 680 goat anti-mouse secondary antibody (A21057, Molecular Probes, Inc.) for 2 hours. After washing in PBT, sections were labeled in 500 nM of Compound 1 for 20 minutes with 0.1 μg/ml DAPI. After a final wash in PBT, sections were mounted in Prolong antifade mountant (Molecular Probes, inc.). Images were collected on a Nikon E800 epifluorescence upright microscope using a Princeton MicroMax cooled CCD digital camera, MetaMorph acquisition software, and Adobe Photoshop image analysis software.

myelin [4] = experiment: Demyelinated mouse model test: control versus shiverer mouse brain cryosections
Method: To illustrate the use of the present dyes for studying myelin diseases such as multiple sclerosis, adrenoleukodystrophy, Guillain-Barre syndrome, and others, Compound 1 was compared against rat anti-myelin basic protein (anti-MBP) primary antibody on control mouse brains versus shiverer mouse brain. […] Brain tissues were cryosectioned at 16 μm and mounted on PLUS slides. Control and shiverer tissues were treated either with anti-MBP primary and Alexa Fluor 488 goat anti-rat secondary or Compound 1. Tissues treated with the antibody were rehydrated and permeabilized in PBT (0.05 M phosphate buffered saline with 0.2% Triton X-100 and 0.2% bovine serum albumin (BSA)) for 20 minutes, then blocked in 5% normal goat serum/3% BSA/PBT for 1 hour. Tissues were then incubated overnight at 4° C. with 5 μg/mL rat anti-MBP (Chemicon, MAB386) in blocking solution. After washing 3×10 minutes in PBT, they were then incubated for 2 hours with 5 μg/mL Alexa Fluor 488 goat anti-rat secondary at room temperature. After further washing 3×10 minutes in PBT, tissues were counterstained with 0.2 μg/ml DAPI, washed 3×5 minutes in PBT, and mounted with ProLong antifade mounting medium (Invitrogen P36930). Tissues that were labeled with Compound 1 were rehydrated and permeabilized as above, then labeled 20 minutes with 500 nM Compound 1 and 0.2 μg/mL DAPI (together) in PBT. Tissues were washed 3×10 minutes PBT, then mounted as above. Images were collected on a Nikon E800 epifluorescence upright microscope using a Princeton MicroMax cooled CCD digital camera, an Omega XF100-2 FITC filter set, MetaMorph acquisition software, and Adobe Photoshop image analysis software. […] Myelin labeling was negative, as expected, for shiverer mice for both anti-MBP and Compound 1, illustrating that the present dyes work as well as anti-MBP for demyelination determination.

| Compound | labeling of myelin (selectivity) (myelin [1]; 12 μm mouse brain cryosections) | myelin label pattern (myelin [1]) | non-specific background labeling (myelin [1]) | single axon labeling (myelin [1]) | emission wavelength (Em) (myelin [1]) [nm] | excitation wavelength (Ex) (myelin [1]) [nm] | disruption of labels / compatibility with NeuroTrace Nissl stain and DAPI (myelin [2]) | label pattern in combination with NeuroTrace Nissl stain and DAPI (myelin [2]) | label pattern in conjunction with anti-GFAP (myelin [3]; 500 nM 20 minutes with 0.1 μg/ml DAPI after anti-GFAP / Alexa Fluor 680 secondary, rostral mesencephalon cross-section) | inhibition of staining pattern (myelin [3]; 500 nM dye with anti-GFAP antibody labeling) | staining brightness compared with anti-MBP (myelin [4]; control mice brain) | myelin labeling in control mice (myelin [4]; control mice brain, 16 μm cryosections, 500 nM dye 20 minutes or 5 μg/mL anti-MBP overnight) | background labeling (myelin [4]; general membrane labeling) | myelin labeling in shiverer mice (myelin [4]; shiverer (demyelinated) mouse brain, 16 μm cryosections) | spectral qualities (myelin [1]; 12 μm mouse brain cryosections) | concentration sufficient for labeling with minimal background (myelin [1]; 12 μm mouse brain cryosections, in PBS) [nM] |
| --- | --- | --- | --- | --- | --- | --- | --- | --- | --- | --- | --- | --- | --- | --- | --- | --- |
| CCCCN(CCCC)c1ccc(C=CC=CC=Cc2cc[n+](CCC[N+](CC)(CC)CC)cc2)cc1 [Compound 2] | selective myelin labeling | specific myelin labeling in expected axon bundles and tracts | some non-specific background labeling was visualized | single axon labeling was not seen | 734 | 558 | no evidence of disruption of any of the three labels | tracts in the fornix, fornix superior, capsula interna, and striatum |  |  |  |  |  |  |  |  |
| CCCCN(CCCC)c1ccc(C=Cc2cc[n+](CCC[N+](CC)(CC)CC)cc2)cc1 [Compound 1] | selective myelin labeling | specific myelin labeling in expected axon bundles and tracts | some non-specific background labeling was visualized | single axon labeling was not seen | 594 | 479 | no evidence of disruption of any of the three labels | tracts in the fornix, fornix superior, capsula interna, and striatum | labeled axon tracts and bundles | no inhibition of staining pattern by either label | twice as bright | labeled myelin in control mice | slight background labeling | negative |  |  |
| CCCCN(CCCC)c1ccc(C=CC=CC=Cc2cc[n+](CCC[N+](C)(C)C)cc2)cc1 [Compound 4] | highly selective labeling of myelin |  |  |  |  |  | compatible with NeuroTrace Green Nissl Stain labeling and DAPI labeling | label pattern comparable to the control dyes |  |  |  |  |  |  | comparable to Compound 2 | 500 |
